Assay results as given in PubChem BioAssay (NCI).
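Step 1: Grow cells in 96-well plates. Step 2: Expose to compound for 48 hours at 5 concentrations. Step 3: Interpolate endpoints linearly; if unreached, use highest concentration. At the TGI there is no net growth.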

How the values were obtained:
Assay in all cases: NCI tumour cell line growth inhibition, 48 h
SF-268 CNS = system: SF-268 CNS
M14 melanoma = system: M14 melanoma
LOX IMVI melanoma = system: LOX IMVI melanoma
NCI-H460 lung = system: NCI-H460 lung
A498 renal = system: A498 renal
MDA-N = system: MDA-N
OVCAR-5 ovarian = system: OVCAR-5 ovarian
SF-539 CNS = system: SF-539 CNS
ACHN renal = system: ACHN renal
HT29 colon = system: HT29 colon
DU-145 prostate = system: DU-145 prostate
SK-MEL-28 melanoma = system: SK-MEL-28 melanoma
NCI/ADR-RES ovarian = system: NCI/ADR-RES ovarian
KM12 colon = system: KM12 colon
RPMI-8226 leukemia = system: RPMI-8226 leukemia
OVCAR-3 ovarian = system: OVCAR-3 ovarian
MOLT-4 leukemia = system: MOLT-4 leukemia
HCT-116 colon = system: HCT-116 colon
CCRF-CEM leukemia = system: CCRF-CEM leukemia
SK-OV-3 ovarian = system: SK-OV-3 ovarian
U251 CNS = system: U251 CNS
OVCAR-8 ovarian = system: OVCAR-8 ovarian
SNB-75 CNS = system: SNB-75 CNS
EKVX NSCLC = system: EKVX NSCLC
HCC-2998 colon = system: HCC-2998 colon
PC-3 prostate = system: PC-3 prostate
UACC-257 melanoma = system: UACC-257 melanoma
HS 578T breast = system: HS 578T breast
TK-10 renal = system: TK-10 renal
MDA-MB-435 = system: MDA-MB-435
IGROV1 ovarian = system: IGROV1 ovarian
SK-MEL-5 melanoma = system: SK-MEL-5 melanoma
OVCAR-4 ovarian = system: OVCAR-4 ovarian
NCI-H226 lung = system: NCI-H226 lung
786-0 renal = system: 786-0 renal
NCI-H522 lung = system: NCI-H522 lung
NCI-H23 lung = system: NCI-H23 lung
SK-MEL-2 melanoma = system: SK-MEL-2 melanoma
SNB-19 CNS = system: SNB-19 CNS
MALME-3M melanoma = system: MALME-3M melanoma
A549 NSCLC = system: A549 NSCLC
HCT-15 colon = system: HCT-15 colon
COLO 205 colon = system: COLO 205 colon
SW-620 colon = system: SW-620 colon
MCF7 breast = system: MCF7 breast
SF-295 CNS = system: SF-295 CNS
UACC-62 melanoma = system: UACC-62 melanoma
K-562 leukemia = system: K-562 leukemia
T-47D breast = system: T-47D breast
HOP-62 NSCLC = system: HOP-62 NSCLC
CAKI-1 renal = system: CAKI-1 renal
SN12C renal = system: SN12C renal
MDA-MB-231 breast = system: MDA-MB-231 breast
RXF 393 renal = system: RXF 393 renal
HL-60(TB) leukemia = system: HL-60(TB) leukemia

Measured: TGI

S=C1NC2=C(CSC/C2=C\c2cccc(Br)c2)C(c2cccc(Br)c2)N1 (stereo not given)
> 100 µM: all assays above
